For experiment [1], the species on record is Oryctolagus cuniculus. The experiment can be described thus: Agonistic activity in vascular contractility study on rabbit aorta. The experiment is classed as functional, organism-based.
Experiment [2] concerns the target T1, Type-1 angiotensin II receptor B (Rattus norvegicus, UniProt P29089).
T1 sequence (P29089 whole entry): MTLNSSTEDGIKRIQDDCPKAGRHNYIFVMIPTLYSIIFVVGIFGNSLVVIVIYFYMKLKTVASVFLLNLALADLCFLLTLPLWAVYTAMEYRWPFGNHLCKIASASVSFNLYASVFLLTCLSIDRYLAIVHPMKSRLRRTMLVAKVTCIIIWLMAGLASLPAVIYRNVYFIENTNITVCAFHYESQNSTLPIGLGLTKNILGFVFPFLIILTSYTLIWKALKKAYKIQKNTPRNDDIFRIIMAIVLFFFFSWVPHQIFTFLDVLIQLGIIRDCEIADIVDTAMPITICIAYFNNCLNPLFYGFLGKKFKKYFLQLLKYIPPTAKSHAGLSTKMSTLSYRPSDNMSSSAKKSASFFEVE
The experiment can be described thus: In vitro binding affinity at rat liver Angiotensin II receptor, type 1 was determined based on displacement of [125I]-Ang II.

For experiment [3], the target named is T2, Type-1 angiotensin II receptor B (Rattus norvegicus) (UniProt P29089).
T2 sequence (whole entry): T1 sequence (P29089 whole entry)
The experiment can be described thus: In vitro binding affinity at rat liver Angiotensin II receptor, type 1 was determined based on displacement of [125I]-Ang II; no affinity. Background: In a radioligand displacement assay an active substance lowers the binding of a labelled ligand.

SMILES strings stand for the structures. Active and inactive are the calls of the source. The rule behind the calls is not given here. *1 amine or outer side, *2 acyl side, *3 side chain or, on linkers, in order; H or OH if unused. Where a SMILES comes first, the peptide text is derived from it. Bridges are numbered along the chain shown (N, C = ends). [ ]: non-standard residue; d: D form. X1 = O=C([C@H](CC/C=C\[*:3])N[*:1])[*:2]; X2 = O=C([C@H](CC/C=C/[*:3])N[*:1])[*:2]; hCys = N[C@@H](CCS)C(=O)O

As usually defined, the EC50 is the concentration that produces a half-maximal response. Read a high EC50 as weaker potency. The molecule `NC(N)=NCCC[C@H](NC(=O)[C@@H](N)CC(=O)O)C(=O)N[C@H]1CS/C=C\CC[C@@H](C(=O)N[C@@H](Cc2c[nH]cn2)C(=O)N2CCC[C@H]2C(=O)N[C@@H](Cc2ccccc2)C(=O)O)NC(=O)[C@H](Cc2ccc(O)cc2)NC1=O` (H-DRCY[X1]HPF-OH; thioether 3-5) displayed an EC50 in experiment [1] of 26 nM.

In general, Ki refers to the equilibrium dissociation constant of an inhibitor or competing ligand from its target. A higher Ki goes with weaker binding. The molecule `NC(N)=NCCC[C@H](NC(=O)[C@@H](N)CC(=O)O)C(=O)N[C@H]1CS/C=C\CC[C@@H](C(=O)N[C@@H](Cc2cnc[nH]2)C(=O)N2CCC[C@H]2C(=O)N[C@@H](Cc2ccccc2)C(=O)O)NC(=O)[C@H](Cc2ccc(O)cc2)NC1=O` (H-DRCY[X1]HPF-OH; thioether 3-5) showed a Ki in experiment [2] of 1.7 nM.

Regarding `NC(N)=NCCC[C@H](NC(=O)[C@@H](N)CC(=O)O)C(=O)N[C@H]1CS/C=C/CC[C@@H](C(=O)N[C@@H](Cc2c[nH]cn2)C(=O)N2CCC[C@H]2C(=O)N[C@@H](Cc2ccccc2)C(=O)O)NC(=O)[C@H](Cc2ccc(O)cc2)NC1=O` (H-DRCY[X2]HPF-OH; thioether 3-5), the EC50 in experiment [1] amounted to 16.1 nM. This counts as double-digit nanomolar.

Consider `NC(N)=NCCC[C@H](NC(=O)[C@@H](N)CC(=O)O)C(=O)N[C@H]1CS/C=C/CC[C@@H](C(=O)N[C@@H](Cc2cnc[nH]2)C(=O)N2CCC[C@H]2C(=O)N[C@@H](Cc2ccccc2)C(=O)O)NC(=O)[C@H](Cc2ccc(O)cc2)NC1=O` (H-DRCY[X2]HPF-OH; thioether 3-5), for which the Ki in experiment [2] turned out to be 1.7 nM.

For `CC(C)[C@H](NC(=O)[C@H](CCCN=C(N)N)NC(=O)[C@@H](N)CC(=O)O)C(=O)N[C@@H](Cc1ccc(O)cc1)C(=O)N[C@H]1CC/C=C\SC[C@@H](C(=O)N[C@@H](Cc2ccccc2)C(=O)O)NC(=O)[C@H](Cc2c[nH]cn2)NC1=O` (H-DRVY[X1]HCF-OH; thioether 5-7), the NA result in experiment [3] is “inactive”.

On to `CC(C)[C@H](NC(=O)[C@H](CCCN=C(N)N)NC(=O)[C@@H](N)CC(=O)O)C(=O)N[C@@H](Cc1ccc(O)cc1)C(=O)N[C@H]1CC/C=C/SC[C@@H](C(=O)N[C@@H](Cc2ccccc2)C(=O)O)NC(=O)[C@H](Cc2c[nH]cn2)NC1=O` (H-DRVY[X2]HCF-OH; thioether 5-7), for which, in experiment [3], the NA entry was “inactive”.

Consider `NC(N)=NCCC[C@H](NC(=O)[C@@H](N)CC(=O)O)C(=O)N[C@H]1CCSSCC[C@@H](C(=O)N[C@@H](Cc2c[nH]cn2)C(=O)N2CCC[C@H]2C(=O)N[C@@H](Cc2ccccc2)C(=O)O)NC(=O)[C@H](Cc2ccc(O)cc2)NC1=O` (H-DR[hCys]Y[hCys]HPF-OH; disulfide 3-5), for which the Ki in experiment [2] worked out at 0.23 nM.

As for `CC[C@H](C)[C@H](NC(=O)[C@H](Cc1ccc(O)cc1)NC(=O)[C@@H](NC(=O)[C@H](CCCNC(=N)N)NC(=O)[C@@H](N)CC(=O)O)C(C)C)C(=O)N[C@@H](Cc1cnc[nH]1)C(=O)N1CCC[C@H]1C(=O)N[C@@H](Cc1ccccc1)C(=O)O` [ANGIOTENSIN II], in experiment [1], the EC50 worked out at 1.4 nM.
